This is an account of results in patent US8507464B2, “Phosphoramidate alkylator prodrugs” (Threshold Pharmaceuticals, Inc., priority 2005, dated 2013).

A word on the IC90: it is the concentration at which the effect reaches the 90% level. Usually solubility stands for the dissolved amount per volume that the medium holds. A lower solubility goes with little dissolved substance. The term Cmax denotes the highest concentration seen after dosing. The term Tmax denotes the time at which the peak concentration occurs. In general, half-life refers to the time needed for the level to fall by half in the phase considered.

Molecules are shown by their SMILES. ≈ marks a conversion by molar mass, not a printed value. Like-named read-outs stand apart in the source and are kept apart here.

The test system of data set [1] is spheroids. As to the kind of experiment: Spheroid combination with cisplatin or daunorubicin, clonogenic survival. The format is cell-based, human. Particulars: 2 h exposure. Here is the method:
The phosphoramidate alkylator prodrug was combined simultaneously with cisplatin or daunorubicin and the spreroids exposed for 2 h to the combination, followed by measurement of clonogenic survival.

Data set [2] concerns HT29 xenograft. As to the kind of experiment: HT-29 xenograft mouse model with CDDP (Example 52). It is filed as in vivo. Particulars: Group 2; tumor volumes at day 25; vs vehicle group; CDDP in saline IV alone. Here is the method: Female CB17/SCID mice (purchased from Charles River, Cambridge, Mass.), 7-8 weeks of age, were allowed to acclimatize for at least three days, and handled under pathogen-free conditions. Human colon carcinoma cell line HT29 was obtained from the American Type Culture Collection. The cell lines were cultured and harvested as described in Example 47 and inoculated at 3×10^6 cells/animal in the peritoneal subcutaneous space. When the tumors grew to an average volume of 100 mm^3 (day 8), each group of mice (ten per group) was administered, for three weeks, as tabulated in the table below: Compound 25 in saline, administration route—i.p., administrated 2 h before CDDP on the days the combination therapy is scheduled and CDDP (in saline, IV).
The body weight and tumor volume were determined as described in Example 47. Data are based on tumor volumes at day 25 when tumors in the vehicle group had reached sufficient size to require that the mice be sacrificed.

Data set [3] concerns H460 lung carcinoma spheroids. The data set can be described thus: Spheroid model, clonogenic survival. Particulars: read-out: IC90 H460 Spheroid 10% O2.
For data set [4], the system named is H460 cells exposed as monolayers. The data set can be described thus: Clonogenic survival of monolayer cells (Example 35).
Data set [5] relates to mouse (MLM) liver microsomal proteins. The format is in vitro ADME.
Data set [6] is described as follows: in vivo.
Data set [7] can be described thus: Plasma stability (Table 2B). Particulars: 30 min.
The test system of data set [8] is NCI-H460 cells. The data set can be described thus: Antiproliferation assay (Alamar Blue), anoxia vs air. Background: Alamar Blue is a resazurin reagent that responds to reducing activity.
Data set [9] deals with HT29 cells. The description is as above. Particulars: Homo sapiens, HT-29, 2 h.
The test system of data set [10] is MES-SA/Dx5 cells. The data set is described as above. Particulars: Homo sapiens, MES-SA/Dx5, 2 h.
For data set [11], the system named is H460 cell line. As to the kind of experiment: Anti-proliferation assay, hypoxia vs normoxia (Table 1A). Particulars: for IC50: Homo sapiens; for HCR P: ratio of IC50 in normoxia and hypoxia.
Data set [12] deals with HT29. As to the kind of experiment: Anti-proliferation assay, hypoxia vs normoxia (Table 1B). Particulars: for IC50: Homo sapiens.
For data set [13], the system named is DX-5. The data set is described as above.
A short description of data set [14]: Solubility in saline at room temperature. It is filed as physicochemical. Particulars: saline or isotonic.
Data set [15] relates to NCI-H460 cells. As to the kind of experiment: Antiproliferation assay - oxygen dependence. The format is cell-based, human. Particulars: Homo sapiens. An excerpt:
. […] The calculated IC50 values (μM) are tabulated in Table Y1 (H460 cells) or Table Y2 (HT29 cells) below.

The conditions of data set [16]: 25 mg/kg i.p., 10% PEG, CD-1 mice.
Data set [17] concerns NCI H460 xenograft. As to the kind of experiment: NCI H460 non small cell lung carcinoma xenograft mouse model (Example 48). It is filed as in vivo. Particulars: Group 6: Taxol (q2d × 3)/week × 2 weeks; day 29; vs vehicle. The procedure: Female CB17/SCID mice (purchased from Charles River, Cambridge, Mass.), 7-8 weeks of age, were allowed to acclimatize for at least three days, and handled under pathogen-free conditions. Human […] cell line NCI H460 was obtained from the American Type Culture Collection. The cell lines were cultured and harvested according to the procedure described in Example 47 and inoculated at 1×10^6 cells/animal in the peritoneal subcutaneous space. When the tumors grew to an average volume of 100 mm^3 (day 8), […], as tabulated in the table below: Compound 25 (2.5 mg/ml in 10% PEG; administration route—i.p.) and Taxol (1 mg/ml in 5% EtOH, 5% Cremophor and 90% saline; administration—i.v. 2 h after administration of Compound 25). The body weight and tumor volumes were measured as described in Example 47 above.
Results are presented in Table X2 based on tumor volume measurement on day 29 when vehicle treated mice had reached a volume of 946 mm^3. Groups of 5 mice receiving saline or no treatment were added in order to indicate any vehicle effects but are not used for comparisons in this analysis.

The subject of data set [18] is NCI H460 xenograft. It is filed as in vivo, mouse. Particulars: Group 2: Taxol 10 mg/kg (q2d × 3)/week × 2 week; day 27; vs vehicle.
Text: Comparisons were made on day 27 because that was the last day of measurements for the vehicle group and those animals were sacrificed.
The test system of data set [19] is human (HLM) liver microsomal proteins. The data set can be described thus: Metabolic stability in liver microsomal protein. It is filed as in vitro ADME. Particulars: Table 2A, second study, 5 μM. In general terms: Liver microsomes are vesicles of endoplasmic reticulum, rich in cytochrome P450 enzymes.
The test system of data set [20] is rat (RLM) liver microsomal proteins. As to the kind of experiment: Metabolic stability in liver microsomal protein. The format is in vitro ADME. Particulars: 5 μM.
[21] abbreviates: Homo sapiens, NCI-H460, 2 h, read-out: IC50 H460 Air, air, 2 h exposure.
The mark [22] stands for this setting: Homo sapiens, NCI-H460, 2 h, read-out: IC50 H460 Anoxia, anoxia, 2 h exposure.
[23] abbreviates: NCI-H460, read-out: Hypoxia P (proliferation IC50).
[24] abbreviates: NCI-H460, read-out: Normoxia P (proliferation IC50).

For `N.N.[Cl][Pt][Cl]` [Cisplatin, cis-Diaminedichloroplatinum (II), reference compound], the IC50 in [1] (read-out: IC50 (μM), spheroids, cisplatin combination experiment) was determined as 14 µM. Further, in data set [2], the “% Inhibition vs Group 1” value is given as 24.2%. The IC90 in [3] (2 h exposure, 10% O2) is 8 µM; in data set [4] (read-out: IC90 H460 Monolayer 0.6% O2, 2 h exposure, 0.6% O2), 7.7 µM; in data set [4] (read-out: IC90 H460 Monolayer Air, 2 h exposure, Air) it was 7.3 µM; in data set [4] (read-out: IC90 H460 Monolayer N2, 2 h exposure, N2), 4.2 µM.
Turning to `Cn1c(COP(=O)(N(CCCl)C2CC2)N(CCCl)C2CC2)cnc1[N+](=O)[O-]` [Compound 7], the “Metabolic stability (MLM) (% at 30 min)” value in data set [5] (Table 2B) is given as 0%. This compound also returned an MTD in data set [6] of 250 mg/kg. For the same compound, the “Plasma stability (% at 30 min)” value in [7] is on record as 85%. Also, the IC50 is 25 µM in [8] (setting [21]); 0.14 µM in data set [8] (setting [22]); above 100 µM in data set [9] (read-out: IC50 HT29 Air); 7 µM in [9] (read-out: IC50 HT29 Anoxia); 83 µM in [10] (read-out: IC50 MES-SA/Dx5 Air); 0.59 µM in [10] (read-out: IC50 MES-SA/Dx5 Anoxia). Moreover, the IC50 in [11] (setting [23]) was 0.14 µM; in [11] (setting [24]), 25 µM; in [12] (HT-29, read-out: HT29 P H (proliferation IC50, hypoxia)), 7 µM; in [12] (HT-29, read-out: HT29 P H, value in parentheses), 100 µM; in data set [12] (HT-29, read-out: HT29 P N (proliferation IC50, normoxic)), above 100 µM; in [13] (read-out: DX-5 P H (proliferation IC50, hypoxia)) it was 0.6 µM. Besides, the IC50 in [13] (read-out: DX-5 P N (proliferation IC50, normoxic)) stood at 83 µM. Further, the “HCR P” value in data set [11] is on record as 180. Besides, the “HT29 HCR P” value in data set [12] is above 5. In addition, the “HT29 HCR P, value in parentheses” value in data set [12] (parentheses not explained) is recorded as “(1)”. In [13], the “DX-5 HCR” value is reported as 140.
`Cn1c([N+](=O)[O-])cnc1COP(=O)(NCCCl)NCCCl` [Compound 10] gave a solubility in data set [14] of 10000 µg/mL (≈ 27.8 mM). In addition, the IC50 was above 100 µM in [15] (NCI-H460, read-out: IC50 in H460 cells, 0.1% O2); above 100 µM in [15] (NCI-H460, read-out: IC50 in H460 cells, 0.6% O2); above 100 µM in data set [15] (NCI-H460, read-out: IC50 in H460 cells, 1% O2); above 100 µM in data set [15] (NCI-H460, read-out: IC50 in H460 cells, Air); above 100 µM in data set [15] (NCI-H460, read-out: IC50 in H460 cells, N2); above 100 µM in data set [8] (setting [21]). Moreover, the IC50 was at least 100 µM in data set [8] (setting [22]), 100 µM in [11] (setting [23]) and above 100 µM in data set [11] (setting [24]). Moreover, in [11], the “HCR P” value is on record as above 1.
`CC(OP(=O)(NCCBr)NCCBr)c1ncc([N+](=O)[O-])n1C` (centres unmarked) [Compound 85]: in [16], the Cmax is 3.93 µg/mL, the Tmax is listed as 5.00 min and the half-life was found to be 10.0 min. Further, the IC50 in [8] (read-out: IC50 H460 Anoxia, anoxia, 2 h exposure) is 0.7 µM.
As to `COc1cccc2c1C(=O)c1c(O)c3c(c(O)c1C2=O)C[C@@](O)(C(C)=O)C[C@@H]3O[C@H]1C[C@H](N)[C@H](O)[C@H](C)O1` [Daunorubicin, reference compound], the IC50 in [1] (Homo sapiens, read-out: IC50 (μM), spheroids, daunorubicin combination experiment) was 17 µM. For the same compound, the IC90 in data set [3] (Homo sapiens, NCI-H460, 2 h) came out at 19 µM; in data set [4] (Homo sapiens, NCI-H460, 2 h, read-out: IC90 H460 Monolayer (oxygen column not identifiable)), 0.16 µM.
For `CC(=O)O[C@H]1C(=O)[C@@]2(C)[C@H]([C@H](OC(=O)c3ccccc3)[C@]3(O)C[C@H](OC(=O)[C@H](O)[C@@H](NC(=O)c4ccccc4)c4ccccc4)C(C)=C1C3(C)C)[C@]1(OC(C)=O)CO[C@@H]1C[C@@H]2O` [Taxol, paclitaxel, reference compound], the “% Inhibition vs Group 2” value in [17] amounted to 46%. Moreover, the “% Inhibition vs Group 1” value in data set [18] was found to be 36.7%.
`C[C@]12CC[C@H]3[C@@H](CCC4=CC(=O)CC[C@@]43C)[C@@H]1CC[C@@H]2O` [Testosterone, reference compound]: the “Metabolic stability (% at 30 min) HLM” value in data set [19] is given as 65%. Besides, the “Metabolic stability (% at 30 min) RLM” value in [20] (Table 1, first study) is listed as 0%; in [20] (Table 2A, second study) it was 33%. Further, in data set [5] (Table 1, first study, 5 μM), the “Metabolic stability (% at 30 min) MLM” value turned out to be 6%.
